We go through 24 compounds from US11584755B2 (IDEAYA BIOSCIENCES, INC., priority 2017, dated 2023).

Holding throughout (format): biochemical
In one test the target is hXPG (Homo sapiens (Human), UniProt P28715). As to the kind of experiment: Enzymatic IC50 assay, FAM-labeled DNA oligomer substrate, fluorescence intensity (XPG). The settings on record: hXPG 100 nM, substrate 100 nM, reaction time 120 minutes, 23° C. On the procedure: (§1) FEN1, EXO1 or XPG enzyme was incubated with compound or vehicle (DMSO) and the FAM-labeled DNA oligomer substrate in a microtiter plate. The stop buffer contains EDTA to stop the enzymatic reaction. The plate is read for fluorescence intensity. The high control (DMSO) with high fluorescence intensity represents no inhibition of enzymatic reaction while the low control (10 μM) with low fluorescence intensity represents full inhibition of enzymatic reaction.
Sequence of hXPG (P28715 whole entry, canonical isoform): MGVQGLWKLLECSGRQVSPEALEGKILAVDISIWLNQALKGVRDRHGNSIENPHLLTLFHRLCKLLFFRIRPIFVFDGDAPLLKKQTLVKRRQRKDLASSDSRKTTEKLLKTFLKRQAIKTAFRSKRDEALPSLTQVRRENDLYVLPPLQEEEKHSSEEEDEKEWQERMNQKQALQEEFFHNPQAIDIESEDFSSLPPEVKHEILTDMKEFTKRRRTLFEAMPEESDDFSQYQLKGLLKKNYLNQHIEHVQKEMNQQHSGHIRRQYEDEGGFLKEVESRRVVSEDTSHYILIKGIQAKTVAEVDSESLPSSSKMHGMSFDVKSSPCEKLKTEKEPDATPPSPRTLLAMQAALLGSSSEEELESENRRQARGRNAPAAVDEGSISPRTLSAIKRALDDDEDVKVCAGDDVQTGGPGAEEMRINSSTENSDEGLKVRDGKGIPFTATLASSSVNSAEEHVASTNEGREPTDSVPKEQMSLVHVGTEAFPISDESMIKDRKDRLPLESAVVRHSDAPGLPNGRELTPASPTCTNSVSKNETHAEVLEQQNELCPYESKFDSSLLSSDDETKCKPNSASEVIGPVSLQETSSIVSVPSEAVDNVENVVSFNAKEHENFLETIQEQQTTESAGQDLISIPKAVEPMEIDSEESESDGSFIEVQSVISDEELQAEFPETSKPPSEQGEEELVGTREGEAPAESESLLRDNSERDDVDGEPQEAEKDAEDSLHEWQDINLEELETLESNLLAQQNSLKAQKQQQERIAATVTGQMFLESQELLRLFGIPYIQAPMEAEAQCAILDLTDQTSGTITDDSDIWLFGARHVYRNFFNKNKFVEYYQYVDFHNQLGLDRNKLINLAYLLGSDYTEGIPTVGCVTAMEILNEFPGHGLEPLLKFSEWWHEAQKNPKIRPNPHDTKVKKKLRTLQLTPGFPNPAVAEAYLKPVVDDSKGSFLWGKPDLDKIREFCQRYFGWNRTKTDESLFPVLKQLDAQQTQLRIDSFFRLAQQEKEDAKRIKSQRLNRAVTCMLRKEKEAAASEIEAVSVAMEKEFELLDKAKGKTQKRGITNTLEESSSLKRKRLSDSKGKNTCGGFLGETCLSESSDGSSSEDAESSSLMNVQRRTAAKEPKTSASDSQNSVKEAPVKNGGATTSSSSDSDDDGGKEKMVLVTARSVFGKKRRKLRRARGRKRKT
(§2) • FEN1 • hFEN1: 70 pM • Substrate: 100 nM • Reaction time: 20 minutes • EXO1 • hEXO1: 6 nM, Isoforml • Substrate: 30 nM • Reaction time: 60 minutes • XPG • hXPG: 100 nM • Substrate: 100 nM • Reaction time: 120 minutes
(§3) Annealing Buffer: 50 mM Tris-HCl, 50 mM NaCl, 1 mM DTT Assay buffer: 50 mM Tris-HCl pH 8.0, 10 mM MgCl2, 0.01% BSA, 1 mM DTT Stop buffer: 50 mM EDTA in assay buffer Temperature: 23° C. Total volume: 40 μl Controls: • 0% inhibition control: DMSO • 100% inhibition control: 10 μM (final) 5-chloro-3-hydroxy-1,3-dihydroquinazoline-2,4-dione Enzyme Reaction and Detection: • 1. Prepare 25 μM intermediate stock of the substrate by diluting SEQ ID NO:1, SEQ ID NO:2, and SEQ ID NO:3 in annealing buffer, in a PCR tube. • 2. Place the PCR tube on a heat block, heat at 95° C. for 3 minutes, then drop in 0.2° C. increments over 2 minutes, stopping at 25° C. • 3. Remove the tube and let the tube cool at room temperature. • 4. Transfer 10 μL of 3× final concentration test compounds or DMSO to the appropriate wells of a microtiter plate. • 5. Transfer 10 μL of 3× final concentration enzyme in assay buffer or assay buffer alone to the appropriate wells. • 6. Incubate the plate at room temperature for 15 minutes. • 7. Transfer 10 μL of 3× substrate in assay buffer to all the test wells. • 8. Incubate the plate at room temperature for prescribed reaction time. • 9. Centrifuge the plate at 1000 rpm for 1 minute. • 10. Transfer 10 μL of stop buffer to all the test wells. • 11. Centrifuge the plate at 1000 rpm for 1 minute. • 12. Read the plate on a plate reader.

In the next test the target is hEXO1, Isoform1 (Homo sapiens (Human), UniProt Q9UQ84). As to the kind of experiment: Enzymatic IC50 assay, FAM-labeled DNA oligomer substrate, fluorescence intensity (EXO1). The settings on record: hEXO1 6 nM, substrate 30 nM, reaction time 60 minutes, 23° C. As to the method:
as §1, §2, §3

The next test has as its target hFEN1 (Homo sapiens (Human), UniProt P39748). As to the kind of experiment: Enzymatic IC50 assay, FAM-labeled DNA oligomer substrate, fluorescence intensity (FEN1). The settings on record: hFEN1 70 pM, substrate 100 nM, reaction time 20 minutes, 23° C. The method, boiled down: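 FEN1, EXO1 or XPG was preincubated 15 min with compound, then the FAM-labelled DNA oligomer substrate was added in Tris-HCl pH 8.0 with 10 mM MgCl2 at 23° C. FEN1 was 70 pM with 100 nM substrate for 20 min, EXO1 6 nM with 30 nM for 60 min, and XPG 100 nM with 100 nM for 120 min. Reactions were EDTA-stopped and read by fluorescence intensity.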

SMILES strings stand for the structures. Where only a bound is given, the exact number is not on record here.

Sequence of hEXO1, Isoform1 (Q9UQ84 whole entry, canonical isoform): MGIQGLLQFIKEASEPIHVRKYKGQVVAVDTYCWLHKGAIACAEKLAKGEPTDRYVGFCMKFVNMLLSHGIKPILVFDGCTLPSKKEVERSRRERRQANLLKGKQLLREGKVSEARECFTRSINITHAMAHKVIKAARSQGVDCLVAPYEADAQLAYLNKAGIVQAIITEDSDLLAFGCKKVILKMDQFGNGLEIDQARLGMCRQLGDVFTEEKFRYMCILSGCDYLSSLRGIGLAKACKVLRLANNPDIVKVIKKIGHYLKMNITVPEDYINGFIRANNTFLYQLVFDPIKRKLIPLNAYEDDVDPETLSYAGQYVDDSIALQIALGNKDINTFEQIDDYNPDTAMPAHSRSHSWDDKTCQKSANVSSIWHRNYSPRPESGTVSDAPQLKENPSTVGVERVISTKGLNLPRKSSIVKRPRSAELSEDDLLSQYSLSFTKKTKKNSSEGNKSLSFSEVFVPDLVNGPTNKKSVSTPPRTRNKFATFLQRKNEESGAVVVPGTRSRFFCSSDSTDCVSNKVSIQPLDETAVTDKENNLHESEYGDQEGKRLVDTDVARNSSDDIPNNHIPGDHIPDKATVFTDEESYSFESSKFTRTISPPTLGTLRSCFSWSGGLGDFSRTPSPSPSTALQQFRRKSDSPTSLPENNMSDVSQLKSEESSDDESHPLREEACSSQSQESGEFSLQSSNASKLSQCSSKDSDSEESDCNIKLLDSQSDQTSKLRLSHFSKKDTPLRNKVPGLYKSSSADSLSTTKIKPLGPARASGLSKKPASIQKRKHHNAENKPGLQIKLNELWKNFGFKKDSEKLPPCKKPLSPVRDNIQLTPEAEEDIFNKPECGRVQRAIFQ
Sequence of hFEN1 (P39748 whole entry): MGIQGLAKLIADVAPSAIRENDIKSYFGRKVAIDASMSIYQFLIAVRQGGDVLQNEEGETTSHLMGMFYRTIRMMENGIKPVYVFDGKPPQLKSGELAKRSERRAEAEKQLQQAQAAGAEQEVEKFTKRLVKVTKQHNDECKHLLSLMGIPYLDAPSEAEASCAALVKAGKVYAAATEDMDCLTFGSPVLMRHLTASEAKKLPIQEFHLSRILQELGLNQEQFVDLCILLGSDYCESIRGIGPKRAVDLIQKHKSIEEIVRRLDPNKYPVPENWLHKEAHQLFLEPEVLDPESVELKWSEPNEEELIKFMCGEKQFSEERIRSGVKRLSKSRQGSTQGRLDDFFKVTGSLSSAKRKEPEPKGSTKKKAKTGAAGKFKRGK

Regarding `O=C(O)c1c(O)c(=O)n(Cc2cccc(Br)c2)c2ccsc12` [Example 1, 4-(3-bromobenzyl)-6-hydroxy-5-oxo-4,5-dihydrothieno[3,2-b]pyridine-7-carboxylic acid], the IC50 on hXPG fell in the range of 2.25 to 10 µM; against hEXO1, Isoform1 it was 2.25 to 10 µM; on hFEN1 it was 0.25 to 0.75 µM.

Take `CC(=O)Nc1cccc(-c2cccc(Cn3c(=O)c(O)c(C(=O)O)c4sccc43)c2)c1` [Example 2, 4-((3′-acetamido-[1,1′-biphenyl]-3-yl)methyl)-6-hydroxy-5-oxo-4,5-dihydrothieno[3,2-b]pyridine-7-carboxylic acid]: the IC50 against hXPG was in the range of 2.25 to 10 µM; against hEXO1, Isoform1, 2.25 to 10 µM; on hFEN1, 0.25 to 0.75 µM.

As for `O=C(O)c1c(O)c(=O)n(Cc2ccccc2)c2ccsc12` [Example 3, 4-benzyl-6-hydroxy-5-oxo-4,5-dihydrothieno[3,2-b]pyridine-7-carboxylic acid], the IC50 at hXPG was 2.25 to 10 µM; on hEXO1, Isoform1, 2.25 to 10 µM; at hFEN1, 0.75 to 2.25 µM.

With `O=C(O)c1c(O)c(=O)n(Cc2ccc(Br)cc2)c2ccsc12` [Example 5, 4-(4-bromobenzyl)-6-hydroxy-5-oxo-4,5-dihydrothieno[3,2-b]pyridine-7-carboxylic acid], the IC50 at hXPG is 2.25 to 10 µM; at hEXO1, Isoform1, 2.25 to 10 µM; against hFEN1, 0.25 to 0.75 µM.

As for `CC(=O)Nc1cccc(Cn2c(=O)c(O)c(C(=O)O)c3sccc32)c1` [Example 7, 4-[(3-acetamidophenyl)methyl]-6-hydroxy-5-oxo-thieno[3,2-b]pyridine-7-carboxylic acid], the IC50 at hXPG was 2.25 to 10 µM; against hEXO1, Isoform1, 0.75 to 2.25 µM; against hFEN1 it was < 0.2 µM.

Take `COc1ccc(Cn2c(=O)c(O)c(C(=O)O)c3sccc32)cc1` [Example 12, 6-hydroxy-4-[(4-methoxyphenyl)methyl]-5-oxo-thieno[3,2-b]pyridine-7-carboxylic acid]: the IC50 on hXPG was 2.25 to 10 µM; against hEXO1, Isoform1 it was 2.25 to 10 µM; against hFEN1, < 0.2 µM.

As for `CS(=O)(=O)Nc1ccc(Cn2c(=O)c(O)c(C(=O)O)c3sccc32)cc1` [Example 16, 6-hydroxy-4-[[4-(methanesulfonamido)phenyl]methyl]-5-oxo-thieno[3,2-b]pyridine-7-carboxylic acid], the IC50 was 2.25 to 10 µM against hXPG; 0.25 to 0.75 µM against hEXO1, Isoform1; < 0.2 µM at hFEN1.

Take `O=C(O)c1c(O)c(=O)n(Cc2cn(-c3ccccc3)nn2)c2ccsc12` [Example 18, 6-hydroxy-5-oxo-4-((1-phenyl-1H-1,2,3-triazol-4-yl)methyl)-4,5-dihydrothieno[3,2-b]pyridine-7-carboxylic acid]: the IC50 was 0.75 to 2.25 µM against hXPG; 0.25 to 0.75 µM on hEXO1, Isoform1; 0.25 to 0.75 µM against hFEN1.

In the case of `CC(=O)Nc1ccc(-n2cc(Cn3c(=O)c(O)c(C(=O)O)c4sccc43)cn2)cc1` [Example 22, 4-{[1-(4-acetamidophenyl)-1H-pyrazol-4-yl]methyl}-6-hydroxy-5-oxo-4,5-dihydrothieno[3,2-b]pyridine-7-carboxylic acid], the IC50 at hXPG was 0.25 to 0.75 µM; on hEXO1, Isoform1 it was 0.25 to 0.75 µM; against hFEN1 it was < 0.2 µM.

With `O=C(O)c1c(O)c(=O)n(Cc2cnn3ccccc23)c2ccsc12` [Example 24, 6-hydroxy-5-oxo-4-(pyrazolo[1,5-a]pyridin-3-ylmethyl)-4,5-dihydrothieno[3,2-b]pyridine-7-carboxylic acid], the IC50 at hXPG is < 0.2 µM; at hEXO1, Isoform1 it was 0.75 to 2.25 µM; against hFEN1, < 0.2 µM.

As to `O=C(O)c1c(O)c(=O)n(Cc2cnn(CCc3ccncc3)c2)c2ccsc12` [Example 28, 6-hydroxy-5-oxo-4-({1-[2-(4-pyridyl)ethyl]pyrazol-4-yl}methyl)thieno[3,2-b]pyridine-7-carboxylic acid], the IC50 was 2.25 to 10 µM at hXPG; 2.25 to 10 µM against hEXO1, Isoform1; < 0.2 µM against hFEN1.

As for `COc1ccc(Cn2c(=O)c(O)c(C(=O)O)c3sc(Cc4ccccc4)cc32)cc1` [Example 29, 2-benzyl-6-hydroxy-4-(4-methoxybenzyl)-5-oxo-4,5-dihydrothieno[3,2-b]pyridine-7-carboxylic acid], the IC50 at hXPG is 2.25 to 10 µM; on hEXO1, Isoform1 it was 2.25 to 10 µM; on hFEN1, 2.25 to 10 µM.

In the case of `COc1ccc(Cn2c(=O)c(O)c(C(=O)O)c3sc(C4CC4)cc32)cc1` [Example 30, 2-cyclopropyl-6-hydroxy-4-(4-methoxybenzyl)-5-oxo-4,5-dihydrothieno[3,2-b]pyridine-7-carboxylic acid], the IC50 against hXPG is 2.25 to 10 µM; against hEXO1, Isoform1 it was 0.25 to 0.75 µM; at hFEN1, 0.75 to 2.25 µM.

Take `O=C(O)c1c(O)c(=O)n(Cc2cccc(Cl)c2)c2ccsc12` [Example 34, 4-(3-chlorobenzyl)-6-hydroxy-5-oxo-4,5-dihydrothieno[3,2-b]pyridine-7-carboxylic acid]: the IC50 was 2.25 to 10 µM at hXPG; 2.25 to 10 µM at hEXO1, Isoform1; < 0.2 µM on hFEN1.

On to `CC(=O)Nc1ccc(Cn2c(=O)c(O)c(C(=O)O)c3sccc32)cc1` [Example 40, 4-(4-acetamidobenzyl)-6-hydroxy-5-oxo-4,5-dihydrothieno[3,2-b]pyridine-7-carboxylic acid], for which the IC50 at hXPG was 2.25 to 10 µM; at hEXO1, Isoform1, 2.25 to 10 µM; against hFEN1, < 0.2 µM.

Regarding `O=C(O)c1c(O)c(=O)n(CC2CCOC2)c2ccsc12` (centres unmarked) [Example 42, 6-hydroxy-5-oxo-4-((tetrahydrofuran-3-yl)methyl)-4,5-dihydrothieno[3,2-b]pyridine-7-carboxylic acid], the IC50 lay in the range of 2.25 to 10 µM on hXPG; 2.25 to 10 µM at hEXO1, Isoform1; 2.25 to 10 µM on hFEN1.

For `CS(=O)(=O)c1ccc(Cn2c(=O)c(O)c(C(=O)O)c3sccc32)cc1` [Example 50, 6-hydroxy-4-(4-(methylsulfonyl)benzyl)-5-oxo-4,5-dihydrothieno[3,2-b]pyridine-7-carboxylic acid], the IC50 at hXPG was 2.25 to 10 µM; against hEXO1, Isoform1, 0.75 to 2.25 µM; against hFEN1, 0.25 to 0.75 µM.

Take `Nc1ccc(Cn2c(=O)c(O)c(C(=O)O)c3sccc32)cc1` [Example 53, 4-(4-aminobenzyl)-6-hydroxy-5-oxo-4,5-dihydrothieno[3,2-b]pyridine-7-carboxylic acid]: the IC50 on hXPG was 2.25 to 10 µM; against hEXO1, Isoform1, 2.25 to 10 µM; against hFEN1 it was < 0.2 µM.

For `CS(=O)(=O)c1cccc(Cn2c(=O)c(O)c(C(=O)O)c3sccc32)c1` [Example 63, 6-hydroxy-4-[3-(methylsulfonyl)benzyl]-5-oxo-4,5-dihydrothieno[3,2-b]pyridine-7-carboxylic acid], the IC50 lay within 2.25 to 10 µM at hXPG; 2.25 to 10 µM against hEXO1, Isoform1; 0.75 to 2.25 µM on hFEN1.

Turning to `O=C(O)c1c(O)c(=O)n(Cc2cnc[nH]2)c2ccsc12` [Example 75, 4-[(1H-imidazol-5-yl)methyl]-6-hydroxy-5-oxo-4,5-dihydrothieno[3,2-b]pyridine-7-carboxylic acid], the IC50 at hXPG was > 10 µM; on hEXO1, Isoform1, 2.25 to 10 µM; on hFEN1, 0.75 to 2.25 µM.

Regarding `COc1ccc(Cn2c(=O)c(O)c(C(=O)O)c3sccc32)cn1` [Example 98, 6-hydroxy-4-[(6-methoxypyridin-3-yl)methyl]-5-oxo-4,5-dihydrothieno[3,2-b]pyridine-7-carboxylic acid], the IC50 was 2.25 to 10 µM at hXPG and 2.25 to 10 µM against hEXO1, Isoform1.

Take `O=C(O)c1c(O)c(=O)n(Cc2cnc3ccccn23)c2ccsc12` [Example 100, 6-hydroxy-4-(imidazo[1,2-a]pyridin-3-ylmethyl)-5-oxo-4,5-dihydrothieno[3,2-b]pyridine-7-carboxylic acid]: the IC50 against hXPG was in the range of 2.25 to 10 µM; on hEXO1, Isoform1 it was 0.75 to 2.25 µM.

In the case of `COc1ccc(Cn2cc(Cn3c(=O)c(O)c(C(=O)O)c4sccc43)cn2)cc1` [Example 126, 6-hydroxy-4-{[1-(4-methoxybenzyl)-1H-pyrazol-4-yl]methyl}-5-oxo-4,5-dihydrothieno[3,2-b]pyridine-7-carboxylic acid], the IC50 against hXPG fell in the range of 2.25 to 10 µM; against hEXO1, Isoform1, 2.25 to 10 µM.

Turning to `O=C(O)c1c(O)c(=O)n(Cc2cnn(Cc3ncc4ccccn34)c2)c2ccsc12` [Example 142], the figures for the IC50 against hXPG and on hFEN1 were 2.25 to 10 µM and < 0.2 µM, respectively.
